This is an account of results in publication PMC9200736, “Complete biosynthetic pathway to the antidiabetic drug acarbose” (Nature Communications, 2022).

As usually defined, the Km is the substrate concentration at which the rate is half of its maximum. Usually kcat stands for the number of substrate molecules converted per active site and unit of time at saturation.

Series [1] deals with T1, AcbU (Actinoplanes sp. SE50/110, UniProt Q27GS3).
T1 construct: recombinant from pRSET-B in E. coli BL21(DE3)/pLysS, Ni-NTA purified
T1 sequence (Q27GS3 1-492): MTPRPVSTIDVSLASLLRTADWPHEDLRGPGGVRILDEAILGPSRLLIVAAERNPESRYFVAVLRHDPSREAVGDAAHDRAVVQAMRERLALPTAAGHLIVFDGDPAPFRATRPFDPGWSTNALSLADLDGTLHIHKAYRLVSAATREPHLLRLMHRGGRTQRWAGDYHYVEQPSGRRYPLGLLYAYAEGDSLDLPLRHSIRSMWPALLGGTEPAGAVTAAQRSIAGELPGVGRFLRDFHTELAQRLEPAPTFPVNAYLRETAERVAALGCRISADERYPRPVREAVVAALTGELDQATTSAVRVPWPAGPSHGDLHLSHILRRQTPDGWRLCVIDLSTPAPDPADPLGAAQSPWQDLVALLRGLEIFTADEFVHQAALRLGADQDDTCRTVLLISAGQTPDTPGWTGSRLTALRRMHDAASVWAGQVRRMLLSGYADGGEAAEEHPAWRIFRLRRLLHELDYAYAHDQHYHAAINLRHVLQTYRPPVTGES
In words: PK/LDH coupled assay, A340; LC-MS of product. It counts as biochemical. Particulars: ATP […], MgCl2 […], Tris-HCl pH […] °C; substrate […].

The target of series [2] is T2, ValC (Streptomyces hygroscopicus, UniProt Q3T6E2).
T2 construct: recombinant from pRSETB-valC in E. coli BL21(DE3)/pLysS, Ni-NTA purified
T2 sequence (Q3T6E2 1-351): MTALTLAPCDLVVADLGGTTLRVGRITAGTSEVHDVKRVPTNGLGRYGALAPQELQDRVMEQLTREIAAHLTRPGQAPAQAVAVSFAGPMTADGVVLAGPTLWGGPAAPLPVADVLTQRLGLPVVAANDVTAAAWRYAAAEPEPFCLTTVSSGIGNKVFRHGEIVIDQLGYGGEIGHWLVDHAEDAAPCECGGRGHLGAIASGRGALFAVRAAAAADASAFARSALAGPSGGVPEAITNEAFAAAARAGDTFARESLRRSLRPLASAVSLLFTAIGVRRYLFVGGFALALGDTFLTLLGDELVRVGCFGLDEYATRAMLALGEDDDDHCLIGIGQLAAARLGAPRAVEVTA
Nature of the series: preparative phosphorylation, conversion by PK/LDH assay. Type of series: biochemical. Particulars: ATP 6 mM, MgCl2 5 mM, Tris-HCl pH 7.5, 30 °C, 6 h.

The target in series [3] is T3, AcbK (Actinoplanes sp. SE50/110, UniProt Q8RMD4).
T3 construct: recombinant from pET28b in E. coli BL21(DE3)/pLysS, Ni-NTA purified
The series is described as above. It counts as biochemical. The note with it: ATP 6 mM, MgCl2 5 mM, Tris-HCl pH 7.5, 30 °C, 6 h.

Series [4] has as its target T4, AcbS (Actinoplanes sp. SE50/110, UniProt Q27GS2).
T4 construct: recombinant from pRSET-B in E. coli BL21(DE3)/pLysS, Ni-NTA purified
T4 sequence (Q27GS2 1-709): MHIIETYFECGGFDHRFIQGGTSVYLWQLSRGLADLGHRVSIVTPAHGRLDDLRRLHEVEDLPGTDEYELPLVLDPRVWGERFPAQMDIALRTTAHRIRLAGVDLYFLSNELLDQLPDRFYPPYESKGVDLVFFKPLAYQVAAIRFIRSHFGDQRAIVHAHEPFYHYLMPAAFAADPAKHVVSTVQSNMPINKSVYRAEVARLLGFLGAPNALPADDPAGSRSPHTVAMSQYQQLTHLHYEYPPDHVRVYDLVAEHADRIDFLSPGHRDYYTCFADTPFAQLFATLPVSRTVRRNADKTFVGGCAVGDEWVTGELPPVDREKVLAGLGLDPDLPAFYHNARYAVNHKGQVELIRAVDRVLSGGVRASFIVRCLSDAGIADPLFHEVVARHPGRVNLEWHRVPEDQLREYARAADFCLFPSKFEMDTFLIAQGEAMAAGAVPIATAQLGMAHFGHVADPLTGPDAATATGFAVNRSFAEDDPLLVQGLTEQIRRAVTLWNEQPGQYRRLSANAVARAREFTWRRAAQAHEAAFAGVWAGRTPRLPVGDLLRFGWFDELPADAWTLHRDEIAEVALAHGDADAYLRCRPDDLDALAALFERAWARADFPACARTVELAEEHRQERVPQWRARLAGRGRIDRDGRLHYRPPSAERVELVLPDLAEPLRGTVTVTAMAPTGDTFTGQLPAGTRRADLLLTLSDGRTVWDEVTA
In words: LC-QTOF/MS and MS/MS of product acarbose. Type of series: biochemical. Particulars: GDP-V generated in situ by AcbR from V1P and GTP; 4-aminoDGG […], MgCl2 […], pH […] °C, […] h.

Series [5] relates to O=P(O)(O)OCC1=C[C@H](OP(=O)(O)O)[C@H](O)[C@@H](O)[C@@H]1O. Nature of the series: purified protein. Particulars: Tris-HCl 20 mM pH 7.5, 30 °C, AcbJ 1.0 µM.
Series [6] concerns O=P(O)(O)O[C@H]1C=C(CO)[C@@H](O)[C@H](O)[C@H]1O. In words: purified protein. Particulars: GTP 1 mM, MgCl2 1 mM, Tris-HCl pH 7.5, 30 °C, AcbR 1.0 µM.

T3 sequence (Q8RMD4 whole entry): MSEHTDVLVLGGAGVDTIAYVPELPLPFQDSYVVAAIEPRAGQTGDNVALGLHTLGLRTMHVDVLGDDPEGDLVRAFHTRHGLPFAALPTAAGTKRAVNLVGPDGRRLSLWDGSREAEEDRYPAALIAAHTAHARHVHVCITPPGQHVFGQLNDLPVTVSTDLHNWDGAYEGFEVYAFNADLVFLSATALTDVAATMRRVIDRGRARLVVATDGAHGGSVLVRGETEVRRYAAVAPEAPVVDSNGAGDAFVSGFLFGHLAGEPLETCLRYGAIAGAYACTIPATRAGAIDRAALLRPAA

Regarding `OCC1=C[C@H](O)[C@H](O)[C@@H](O)[C@@H]1O` [V], the “PK/LDH coupled assay, A340; LC-MS of product” value in series [1] is “AcbU can also phosphorylate valienol (V)”. Besides, the “preparative phosphorylation, conversion by PK/LDH assay” value in series [2] was “phosphorylation of synthetically prepared valienol using the cyclitol kinase ValC”.

As to `C[C@H]1O[C@H](O[C@H]2[C@H](O)[C@@H](O)[C@@H](O[C@H]3[C@H](O)[C@@H](O)C(O)O[C@@H]3CO)O[C@@H]2CO)[C@H](O)[C@@H](O)[C@@H]1N[C@H]1C=C(CO)[C@@H](O)[C@H](O)[C@H]1O` (stereo partly drawn) [compound 1, acarbose], the “preparative phosphorylation, conversion by PK/LDH assay” value in series [3] was “prepared enzymatically from acarbose and ATP using the acarbose kinase AcbK”.

As to `O=P(O)(O)OCC1=C[C@H](O)[C@H](O)[C@@H](O)[C@@H]1O` [compound 12, V7P], the “PK/LDH coupled assay, A340; LC-MS of product” value in series [1] is listed as “V7P is a preferred substrate for AcbU to produce V1,7PP”.

Turning to `Nc1nc2c(ncn2[C@@H]2O[C@H](COP(=O)(O)OP(=O)(O)O[C@H]3C=C(CO)[C@@H](O)[C@H](O)[C@H]3O)[C@@H](O)[C@H]2O)c(=O)[nH]1` [compound 16, GDP-V], the “LC-QTOF/MS and MS/MS of product acarbose” value in series [4] is “incubation of recombinant AcbS with GDP-V (generated in situ”.

In the case of AcbJ (Actinoplanes sp. SE50/110), in series [5], the Km is listed as 817 ± 168 µM and the turnover number (kcat) was found to be 0.367 ± 0.067 s⁻¹.

As to AcbR (Actinoplanes sp. SE50/110), in series [6], the Km was 412 ± 83 µM and the kcat was 0.233 ± 0.017 s⁻¹.
